Key:
[1] = test system: endometriosis induced by implantation of rat uterine cornu on the mesenterium; experiment: In vivo rat endometriosis model, pain response to oxytocin; conditions: day 24; injected intra-peritoneally after 21 days; as compared to the control (saline)
Procedure: Endometriosis was induced by implantation of rat uterine comu on the mesenterium. The tissue was allowed to proliferate in vivo for 21 days. After 21 days, rats in the control group were injected intra-peritoneally with saline while rats in the experimental group were injected with CBDA-Me. Pain response to oxytocin was measured on day 24. The pain response decreased by 50% in the group treated with CBDA-Me as compared to the control.

[2] = test system: DSS induced acute colitis; experiment: DSS induced acute colitis mouse model, Example 11; type: in vivo, C57BL/6 mice
Procedure: The therapeutic effect of CBDA-Me on inflammatory bowel disease (IBD) was examined in an acute colitis mouse model. Colitis was induced in 10 weeks old female C57BL/6 mice using dextran sodium sulphate (DSS). Mice were fed for 8 days with 2% (wt/vol) DSS in their drinking water. Mice were administered (3 animals in each group) one of the following treatments by gavage: CBD (400 mg/kg), CBDA-Me (10 mg/kg or 40 mg/kg), DSS alone (untreated control), prednisone (90 mg/kg, control), none (healthy mice).
(§1) Weight loss was measured on days 1, 3, 5, 8, and 10.
(§2) Next, the mice were sacrificed and the length of their colons were measured.
Cytokine levels of IL-6 and TNFα were measured using ELISA kits (R&D Systems, USA). Colon TNFα (FIG. 10), blood IL-6 (FIG. 11), and mouse endoscopic index of colitis severity (METICS) scoring levels (FIG. 12) were lower in mice treated with CBDA-Me compared to CBD. Representative photos of colonoscopy can be seen in FIG. 13A-13E.

[3] = test system: chronic colitis in IL-10 KO mice; experiment: Chronic colitis mouse model (IL-10 KO), Example 12; type: in vivo; conditions: IL-10 KO mice fed twice a day for 13 weeks
Procedure: Mice with targeted discruption of the IL-10 gene (IL-10 KO) and littermate wild-type controls (IL-10 WT) were used (see for example Scheinin et al., Clin. Exp. Immunol., 2003, 133:38-43). After 4 weeks of age mice were fed twice a day for 13 weeks with one of the following treatments: CBD, CBDA-Me, an anti-TNF antibody (control), none (untreated control mice). The CBDA-Me efficacy is compared to CBD and controls.
Cytokine levels of IL-1B and TNFα were measured using ELISA kits (R&D Systems, USA). Colon TNFα (FIG. 14), blood IL-1b (FIG. 15), and mouse endoscopic index of colitis severity (MEICS) scoring levels (FIG. 16) were lower in mice treated with CBDA-Me compared to CBD.

[4] = test system: Th17 (psoriasis) mediated inflammation; experiment: Ex vivo induced inflammation of human skin explants, Th17 stimulation; type: cell-based; conditions: topical at 40 h and 16 h prior to stimulation; degree comparable/improved to 1% hydrocortisone ointment (FIG. 7)
Procedure: (§3) The efficacy of CBDA-Me was compared to that of corticosteroid treatment in an ex vivo model of induced inflammation of human skin explants (see for example WO2019/063122 and WO2014/182655).
(§4) Freshly excised healthy human skin was dermatomed to an approximate thickness of 750±100 μm. The dermatomed skin was cut into 1 cm^2 sections and mounted onto static Franz cells with a dosing area of approximately 0.6 cm^2.
(§5) The experiment was performed as follows: • (i) Static Franz cells (n=4 per treatment), with an average surface area of approximately 0.6 cm^2 and a volume of approximately 2.0 mL were employed. • (ii) Skin was mounted onto the static Franz cell, Stratum corneum side up, and clamped into place. • (iii) The receptor compartment was filled with approximately 2 mL of warm (ca. 37° C.) Cornification media. • (iv) CBDA-Me or 1% Perrigo® hydrocortisone ointment (control) was applied topically at 40 hours and 16 hours prior to stimulation and was incubated at 37° C. with 5% C02. • (v) The contents of the receptor compartment from each cell was vacuum aspirated and replaced with 2 mL pre-warmed (ca. 37° C.) cornification media, containing either Th1 or Th17 stimulation cocktail. • (vi) Tissue explants were harvested at 24 hours post-stimulation and placed in RNAlater® solution for further processing. […]

[5] = test system: Human Endometrial Stromal Cell Line (SHT290); experiment: In vitro endometriosis model: attachment and proliferation of endometrial stromal cells; type: cell-based; conditions: added to the medium; dose dependent fashion
Procedure: Cultured cells from Human Endometrial Stromal Cell Line (SHT290) were used. CBDA-Me was added to the medium and the attachment of cells and their proliferation rate were measured.

[6] = test system: Th1 (chronic and acute atopic dermatitis) mediated inflammation; experiment: Ex vivo induced inflammation of human skin explants, Th1 stimulation; type: cell-based; conditions: topical at 40 h and 16 h prior to stimulation; degree comparable/improved to 1% hydrocortisone ointment (FIG. 6)
Procedure: as §3, §4, §5

[7] = molecular target: T1, serotonin 5-HT1A Receptor (Homo sapiens, UniProt P08908); conditions: CBDA activates the receptor; background statement; cited from earlier work
T1 sequence (P08908 1-422): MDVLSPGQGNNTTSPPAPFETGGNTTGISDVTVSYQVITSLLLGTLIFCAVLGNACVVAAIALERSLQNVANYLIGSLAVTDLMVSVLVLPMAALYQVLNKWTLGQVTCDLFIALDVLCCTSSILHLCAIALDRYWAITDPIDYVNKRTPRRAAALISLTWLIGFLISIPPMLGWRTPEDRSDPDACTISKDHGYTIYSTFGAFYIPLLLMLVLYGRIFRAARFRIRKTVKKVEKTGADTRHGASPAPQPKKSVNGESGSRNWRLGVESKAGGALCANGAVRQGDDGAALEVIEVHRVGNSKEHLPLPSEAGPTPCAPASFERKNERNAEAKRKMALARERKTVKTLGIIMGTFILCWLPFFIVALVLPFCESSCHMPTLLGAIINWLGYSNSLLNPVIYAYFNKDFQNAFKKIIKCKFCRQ

[8] = test system: partial meniscectomy/ACL transection rat model of surgical induced osteoarthritis and pain induced incapacitance; experiment: Weight bearing in rat meniscectomy model versus hyaluronate and corticosteroid, Example 6; type: in vivo
Procedure: Rats were allowed to acclimatize for 1 week, followed by assessment of their weight bearing preference using an incapacitance meter. Unilateral medical meniscectomy and anterior cruciate ligament […] (MMX/ACLT) surgery was performed on the right knee of a subject rat. Weight bearing preference was tested before and after surgery. After 2 weeks, treatments with both intra-articular (1) and. intra-peritoneal (6) administrations of EPM301 began in the EPM301 group. In the hyaluronate (HA) and corticosteroid (CS) groups, a single intra-articular injection was performed 2 weeks after model induction. Weight bearing preference was then assessed 4 and 7 days after the start of therapy.
Wistar Rats (HsdHan female rats 225-249 grams) were acquired from Envigo. The rats were evaluated using an incapacitance tester. They were tested pre-operation, one-week post-operation, two weeks post-operation, prior to injection, 4 and 7 days post injections.
EPM-301 was dissolved in a solution mixture of 1:1:18 EtOH:cremophor:seline to a final concentration of 3.5 mg/mL. Hyaluronic acid (Arthrease, 1% sodium hyaluronate) and Dexamethasone (kem Pharma, Venus, 72, Pol. Ind. Colom II, 08228 Terrassa, Barcelona) were acquired.
Intra-articular (i.a.) injection was carried out with 100 uL and intra-peritoneal (i.p.) injections were carried out with 150 uL. All were injected i.a. in the first day. EPM-301 was injected via i.p. administration on the first day, and for 5 additional days everyday via i.p. administration.
Student's t-test was performed at the last follow-up time to determine effect of the therapy as primary endpoint. The level of significance was 0.05 alpha. ANOVA was used to compare all time points, a post-hob analysis with the Scheffe all comparisons method was performed. Calculations were performed using the Analyze-it Excel add-on function.
The percentage of weight bearing was calculated as the amount of weight born (in grams) on the right hind limb divided by the amount of weight born on the left hind limb. This ratio was expressed as percentage weight bearing. Prior to operation the Rt/Lt weight bearing in both groups was similar. There were 4 animals in the EPM-301 treated group and 8 animals in each of the HA and CS treated groups, with a total of 20 tested subjects.

[9] = test system: DSS induced acute colitis; experiment: DSS induced acute colitis mouse model, EPM-301 versus EPM-302, Example 13; type: in vivo, C57BL/6 mice; conditions: 10 mg/kg
Procedure: Colitis was induced in 10 weeks old female C57BL/6 mice using dextran sodium sulphate (DSS). Mice were fed for 8 days with 2% (wt/vol) DSS in their drinking water. […] EPM-302 served as an additional control.
as §1, §2
Cytokine levels of IL-6 and TNFα were measured using ELISA kits (R&D Systems, USA). Colon TNFα (FIG. 19), blood IL-6 (FIG. 20), levels were lower in mice treated with CBDA-Me (EPM-301) as compared to EPM-302. Similarly, the MEICS score of EPM-301 treated subjects were also lower than EPM-302 treated subjects (FIG. 21). Representative photos of colonoscopy can be seen in FIG. 22A-22D.

[10] = molecular target: T2, glucose transporter 2 (GLUT2) (Homo sapiens, UniProt P11168); experiment: 2-NBDG glucose uptake in transfected HEK293t cells; type: cell-based; conditions: 50-0.1 μM tested
T2 construct: expressed in transfected cells; host or cells: HEK293t
T2 sequence (P11168 1-524): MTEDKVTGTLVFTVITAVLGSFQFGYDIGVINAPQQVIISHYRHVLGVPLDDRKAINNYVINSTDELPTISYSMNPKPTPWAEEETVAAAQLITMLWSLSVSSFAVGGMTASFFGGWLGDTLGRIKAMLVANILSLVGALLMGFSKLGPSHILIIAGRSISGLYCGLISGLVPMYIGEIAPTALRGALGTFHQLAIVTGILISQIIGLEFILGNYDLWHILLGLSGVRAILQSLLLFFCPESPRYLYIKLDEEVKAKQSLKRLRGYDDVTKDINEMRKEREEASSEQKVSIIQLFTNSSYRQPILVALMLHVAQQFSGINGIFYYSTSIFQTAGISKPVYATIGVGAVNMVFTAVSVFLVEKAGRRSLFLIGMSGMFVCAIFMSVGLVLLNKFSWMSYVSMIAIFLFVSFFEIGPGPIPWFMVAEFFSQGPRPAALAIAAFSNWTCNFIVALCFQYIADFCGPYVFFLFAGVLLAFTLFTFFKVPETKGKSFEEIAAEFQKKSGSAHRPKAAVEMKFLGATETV
Procedure: In vitro assays for measuring glucose uptake were designed to assess whether EPM-301 and EPM-302 compounds are capable of inhibiting or increasing glucose uptake via glucose transporters (GLUTs).
Transfected HEK293t cells, which express the glucose transporter 2 (GLUT2), were cultured in a 96 well plate and maintained at 37° C. in 5% CO2 in DMEM medium supplemented with 10% FCS, 2 mM 1-glutamine, 1 mM sodium pyruvate, 100 U/mL penicillin, and […] streptomycin for 24 h. The medium was then washed with a choline chloride Na^+-free buffer (CCB), in which only GLUTs (and not the sodium/glucose transporters [SGLTs]) were active. The wells were then added with CCB/CCB+2-NBDG (a fluorescent derivative of glucose). Compounds were tested in a range of concentrations for their ability to inhibit/increase 2-NBDG uptake into the cells. After 1.5 h incubation, cells were washed with CCB and incubated with 1 μg/μL of Hoechst for 15 mins at 37° C. and protected from light. Fluorescence was measured by the Cytation-3 plate reader at ex:485 nm/em:528 nm and ex:350 nm/em:461 nm for 2-NBDG Hoechst, respectively. Results of the 2-NBDG levels were normalized to Hoechst levels of each well, and presented as a change in the uptake of 2-NBDG in comparison with Vehicle-treated group.
Vehicle solution (choline chloride buffer), EPM-301 (50-0.1 μM), and EPM-302 (50-0.1 μM) were used for the experiments.
Values are expressed as mean±SEM. Unpaired two-tailed student's t-test was used to determine the differences between the groups. Significance was set at p<0.05. *versus vehicle; #versus control.

For `C=C(C)[C@@H]1CCC(C)=CC1c1c(O)cc(CCCCC)c(C(=O)OC)c1O` (stereo in doubt) [EPM-301, cannabidiolic acid methyl ester], the “decrease of pain response to oxytocin” value [1] was 50%, the weight loss ([2]; 40 mg/kg by gavage, compared to CBD (400 mg/kg), days 1-10 (FIG. 8)) was “reduced” and the colon length ([2]; 40 mg/kg by gavage, versus CBD and untreated control mice, similar to prednisone (FIG. 9)) was “greater”. The “mouse endoscopic index of colitis severity scoring” value ([2]; compared to CBD (FIG. 12)) was “lower”, the “colon TNFα” value ([2]; compared to CBD, ELISA (FIG. 10)) was “lower” and the “blood IL-6” value ([2]; compared to CBD, ELISA (FIG. 11)) was “lower”. For the same compound, the “colon TNFα” value ([3]; compared to CBD (FIG. 14)) was “lower”, the “blood IL-1b” value ([3]; compared to CBD (FIG. 15)) was “lower” and the “mouse endoscopic index of colitis severity (MEICS) scoring” value ([3]; compared to CBD (FIG. 16)) was “lower”. The “Th17 mediated inflammation (IL17α, IL22, CXCL10, IL36g, SerpinB4 by RT-qPCR)” value [4] was “inhibition”, the attachment of cells [5] was “decrease” and the proliferation rate [5] was “decrease”. The “Th1 mediated inflammation (IFNγ, TNFα, IL1β, IL2, IL13 by RT-qPCR)” value [6] was “inhibition”.

For `C=C(C)C1CCC(C)=CC1c1c(O)cc(CCCCC)c(C(=O)O)c1O` (stereo not shown) [CBDA, 2,4-dihydroxy-3-[3-methyl-6-prop-1-en-2-ylcyclohex-2-en-1-yl]-6-pentylbenzoic acid], the “affinity for the 5-HT1A receptor relative to CBD” value [7] is given as “significantly greater”.

With `C[C@@H]1C[C@H]2[C@@H]3CCC4=CC(=O)C=C[C@]4(C)[C@@]3(F)[C@@H](O)C[C@]2(C)[C@@]1(O)C(=O)CO` [CS, Dexamethasone, reference compound] the “Rt limb weight bearing” value ([8]; following injections, EPM-301 i.a. once plus i.p. 6 days, HA and CS single i.a. injection) was 62.1% and the weight bearing ([8]; immediately prior to injection, two weeks following model induction (baseline before treatment)) was 52.5%.

In the case of `CCCCCc1cc(O)c(C2C=C(C)CCC2C(C)C)c(O)c1C(=O)OC` (stereo not shown) [EPM-302], the therapeutic effect [9] is reported as “not enough to induce a therapeutic effect”, the “concentration at which the effect on glucose transport was observed” value [10] is reported as “all concentrations tested” and the “glucose uptake (2-NBDG) in HEK293 cells” value ([10]; 1.5 h incubation, versus vehicle (FIG. 36A, 36B)) is reported as “significantly reduce”.

Reference: patent US12403114B2, “Cannabinoid acid ester compositions and uses thereof” (EPM (IP), INC., priority 2019, dated 2025)
